Data published in patent US5043353A, “A80789 polyether antibiotic” (Eli Lilly and Company, priority 1989, dated 1991).

Tested on: Culture A80789
Experiment: Antibiotic sensitivity disc test on the producing culture
Type: cell-based, Streptomyces hygroscopicus
Conditions: ISP No. 2 agar
Protocol: Resistance to antibiotics was measured by padding antibiotic sensitivity discs onto the surface of seeded ISP No. 2 agar plates. Resistance was scored as (+) when no zone of inhibition was observed and as (-) when a zone of inhibition was observed.

Molecule	Resistance of culture to antibiotic (disc 10 mcg)	Resistance of culture to antibiotic (disc 30 mcg)	other results
CO[C@H]1/C=C/O[C@@]2(C)Oc3c(C)c(O)c4c(O)c(c(/C=N/N5CCN(C)CC5)c(O)c4c3C2=O)NC(=O)/C(C)=C\C=C\[C@H](C)[C@H](O)[C@@H](C)[C@@H](O)[C@@H](C)[C@H](OC(C)=O)[C@@H]1C [rifampin]	–	–	Resistance of culture to antibiotic (disc 5 mcg): resistant
[H]/N=C(/N)N[C@H]1[C@H](O)[C@@H](O)[C@H](O[C@@H]2O[C@@H](C)[C@](O)(C=O)[C@H]2O[C@@H]2O[C@@H](CO)[C@H](O)[C@@H](O)[C@@H]2NC)[C@@H](N/C(N)=N\[H])[C@@H]1O [streptomycin]	sensitive	–	–
CN(C)[C@@H]1C(=O)C(C(N)=O)=C(O)[C@@]2(O)C(=O)C3=C(O)c4c(O)cccc4[C@@](C)(O)[C@H]3C[C@@H]12 [tetracycline]	–	sensitive	–
NC[C@H]1O[C@H](O[C@H]2[C@H](O)[C@@H](O[C@H]3O[C@H](CO)[C@@H](O)[C@H](N)[C@H]3O)[C@H](N)C[C@@H]2N)[C@H](N)C[C@@H]1O [tobramycin]	sensitive	–	–
CN[C@H](CC(C)C)C(=O)N[C@H]1C(=O)N[C@@H](CC(N)=O)C(=O)N[C@H]2C(=O)N[C@H]3C(=O)N[C@H](C(=O)N[C@H](C(=O)O)c4cc(O)cc(O)c4-c4cc3ccc4O)[C@H](O)c3ccc(c(Cl)c3)Oc3cc2cc(c3O[C@@H]2O[C@H](CO)[C@@H](O)[C@H](O)[C@H]2O[C@H]2C[C@](C)(N)[C@H](O)[C@H](C)O2)Oc2ccc(cc2Cl)[C@H]1O [vancomycin]	–	sensitive	–
gentamicin	sensitive	–	–
neomycin	–	sensitive	–
